From US9789101B2, “Methods and compositions for treating microbial infection using pyrroloquinone” (HELPERBY THERAPEUTICS LIMITED, priority 2010, dated 2017)

Legend:
[1] = tested on: log phase Staphylococcus aureus; assay: Chequerboard analysis of HT00800059 and mupirocin against log phase Staphylococcus aureus; assay type: cell-based, Staphylococcus aureus (Oxford)
Method: Staphylococcus aureus (Oxford); Gram positive; Reference strain. Log phase growth of […] sensitive Staphylococcus aureus (MSSA) was carried out as follows: • Bacteria were grown in 10 ml of nutrient broth (No. 2, (Oxoid)) overnight at 37° C. with continuous shaking at 120 rpm. […] The cultures were incubated at 37° C. with shaking for 1-2 hours to reach log CFU 6. Viability of the bacteria was estimated by colony forming unit (CFU) counts. From serial 10-fold dilutions of the experimental cultures, 100 μl samples were added to triplicate plates of nutrient agar plates (Oxoid) or blood agar plates (Oxoid). CFUs were counted after incubation of the plates at 37° C. for 24 hours. […] 290 μl of the cell suspension was added to each well of the 96 well plate, which was incubated at 37° C. for 24 hours. […] MIC determination: The optical density of the bacterial cells was read at 405 nm using a plate reader (Bio TEK). The MIC concentration was determined as the lowest concentration of drug which inhibits the bacterial growth. […] HT00800059 was dissolved in H2O to the stock solution 30.07 mg/ml. […] HT00800059 (30.7 mg/ml) was performed in a serial of 2 fold dilutions. This was followed by the addition of 280 μl of log phase culture at 10^6 CFU/ml to make the final concentrations of each drug as shown. In the above table, values in bold text are for HT00800059. Values in plain text are for mupirocin. The numbers shown in each well are μg/ml. Incubation of the compounds with the bacterial suspension was carried out for 24 hours. The kill effects of the drug combination were measured by optical density reading at 405 nm with a plate reader (Bio TEK). The fractional inhibitory concentration (FIC) index was carried out as following: (MIC of drug A, tested in combination)/(MIC of drug A, tested alone)+(MIC of drug B, tested in combination)/(MIC of drug B, tested alone). The interaction was defined as synergistic if the FIC index was <1, additive if the FIC index was =1 and antagonistic if the FIC index was >1.

[2] = tested on: Mupirocin Resistant S. aureus (28 Passages); assay: Chequerboard analysis of HT00800059 and mupirocin against mupirocin resistant S. aureus (28 passages); assay type: cell-based, Staphylococcus aureus; conditions: for optical density reading at 405 nm: HT00800059 μg/ml: 1024,512,256,128,64,32,16,0, 24 hours
Method: (§1) Staphylococcus aureus (Oxford); Gram positive; Reference strain.
(§2) Log phase growth of mupirocin resistant Staphylococcus aureus (MSSA) was carried out as follows: • Bacteria were grown in 10 ml of nutrient broth (No. 2, (Oxoid)) overnight at 37° C. with continuous shaking at 120 rpm. The overnight cultures were diluted 1000× with iso-sensitest broth. The cultures were incubated at 37° C. with shaking for 1-2 hours to reach log CFU 6. Viability of the bacteria was estimated by colony forming unit (CFU) counts. From serial 10-fold dilutions of the experimental cultures, 100 μl samples were added to triplicate plates of nutrient agar plates (Oxoid) or blood agar plates (Oxoid). CFUs were counted after incubation of the plates at 37° C. for 24 hours.
(§3) Bacterial cultures: 10 μl of overnight cultures was added to 10 ml of fresh iso-sensitest broth to make the inoculation to 10^6 CFU/ml. 290 μl of the cell suspension was added to each well of the 96 well plate, which was incubated at 37° C. for 24 hours. 300 μl of iso-sensitest broth without bacterial cells were added to wells of the plate as a no bacterial control.
(§4) MIC determination: The optical density of the bacterial cells was read at 405 nm using a plate reader (Bio TEK). The MIC concentration was determined as the lowest concentration of drug which inhibits the bacterial growth.
(§5) Mupirocin was dissolved in DMSO to the stock concentration of 10 mg/ml. HT00800059 was dissolved in H2O to the stock solution 30.07 mg/ml.
(§6) Mupirocin (10 mg/ml) was firstly diluted to 3.84 mg/ml, then further diluted in a serial of 2 fold dilutions. HT00800059 (30.7 mg/ml) was performed in a serial of 2 fold dilutions.
(§7) This was followed by the addition of 280 μl of log phase culture at 10^6 CFU/ml to make the final concentrations of each drug as shown in Table 1 and Table 2.
(§8) In the above table, values in bold text are for HT00800059. Values in plain text are for mupirocin. The numbers shown in each well are μg/ml.
(§9) Incubation of the compounds with the bacterial suspension was carried out for 24 hours. The kill effects of the drug combination were measured by optical density reading at 405 nm with a plate reader (Bio TEK).
(§10) The fractional inhibitory concentration (FIC) index was carried out as following: (MIC of drug A, tested in combination)/(MIC of drug A, tested alone)+(MIC of drug B, tested in combination)/(MIC of drug B, tested alone). The interaction was defined as synergistic if the FIC index was <1, additive if the FIC index was =1 and antagonistic if the FIC index was >1.

[3] = tested on: Mupirocin Resistant S. aureus (24 Passages); assay: Chequerboard analysis of HT00800059 and mupirocin against mupirocin resistant S. aureus (24 passages); assay type: cell-based, Staphylococcus aureus; conditions: for optical density reading at 405 nm: HT00800059 μg/ml: 1024,512,256,128,64,32,16,0, 24 hours
Method: as §1, §2, §3, §4, §5, §6, §7, §8, §9, §10

[4] = Staphylococcus aureus, read-out: alone MIC

C/C(=C\C(=O)OCCCCCCCCC(=O)O)C[C@@H]1OC[C@H](C[C@@H]2O[C@H]2[C@@H](C)[C@H](C)O)[C@@H](O)[C@H]1O [Mupirocin]
MIC ([1]; Staphylococcus aureus, summary list, read-out: alone MIC): 0.25 µg/mL
MIC before combination ([1]; iso-sensitest broth): 0.25 µg/mL
MIC post combination ([1]; iso-sensitest broth): 0.0625 µg/mL
MIC before combination ([1]; nutrient broth): 0.25 µg/mL
MIC post combination ([1]; nutrient broth): 0.0625 µg/mL
mupirocin MIC in combination ([1]; with HT00800059 at 256 μg/ml): 0.0625 µg/mL
optical density reading at 405 nm ([2]; 28 passages, mupirocin 0.125 μg/ml): 1.255
optical density reading at 405 nm ([2]; 28 passages, mupirocin 0.25 μg/ml): 1.246
optical density reading at 405 nm ([2]; 28 passages, mupirocin 0.5 μg/ml): 1.252
optical density reading at 405 nm ([2]; 28 passages, mupirocin 1 μg/ml): 1.244
optical density reading at 405 nm ([2]; 28 passages, mupirocin 2 μg/ml): 1.208
optical density reading at 405 nm ([2]; 28 passages, mupirocin 4 μg/ml): 1.136
optical density reading at 405 nm ([2]; 28 passages, mupirocin 8 μg/ml): 0.968
optical density reading at 405 nm ([2]; 28 passages, mupirocin 16 μg/ml): 0.726
optical density reading at 405 nm ([2]; 28 passages, mupirocin 32 μg/ml): 0.480
optical density reading at 405 nm ([2]; 28 passages, mupirocin 64 μg/ml): 0.363
optical density reading at 405 nm ([2]; 28 passages, mupirocin 128 μg/ml): 0.346
MIC [2, 4]: 64 µg/mL
MIC before combination ([2]; resistant strain 28 passages): 64 µg/mL
MIC post combination ([2]; resistant strain 28 passages): 4 µg/mL
mupirocin MIC in combination ([2]; with HT00800059 at 256 μg/ml, 28 passages): 4 µg/mL
optical density reading at 405 nm ([3]; 24 passages, mupirocin 0.125 μg/ml): 1.170
optical density reading at 405 nm ([3]; 24 passages, mupirocin 0.25 μg/ml): 1.083
optical density reading at 405 nm ([3]; 24 passages, mupirocin 0.5 μg/ml): 1.109
optical density reading at 405 nm ([3]; 24 passages, mupirocin 1 μg/ml): 1.056
optical density reading at 405 nm ([3]; 24 passages, mupirocin 2 μg/ml): 0.863
optical density reading at 405 nm ([3]; 24 passages, mupirocin 4 μg/ml): 0.629
optical density reading at 405 nm ([3]; 24 passages, mupirocin 8 μg/ml): 0.454
optical density reading at 405 nm ([3]; 24 passages, mupirocin 16 μg/ml): 0.386
optical density reading at 405 nm ([3]; 24 passages, mupirocin 21 μg/ml): 0.359
optical density reading at 405 nm ([3]; 24 passages, mupirocin 64 μg/ml): 0.356
optical density reading at 405 nm ([3]; 24 passages, mupirocin 128 μg/ml): 0.358
MIC [3, 4]: 16 µg/mL
MIC before combination ([3]; resistant strain 24 passages): 16 µg/mL
MIC post combination ([3]; resistant strain 24 passages): 1 µg/mL
mupirocin MIC in combination ([3]; with HT00800059 at 256 μg/ml, 24 passages): 1 µg/mL
